Assay results reported in publication PMC6678097, “Machilin A Inhibits Tumor Growth and Macrophage M2 Polarization Through the Reduction of Lactic Acid” (Cancers, 2019).

Tests used:
[1] = biological target: T1, purified recombinant LDHA (Homo sapiens, UniProt P00338); test: In vitro LDH activity assay with purified recombinant LDHA; type: biochemical; details: up to a concentration of 1 mM
T1 construct: made in house
Procedure: A purification of recombinant LDHA was performed as described previously. LDH activity was determined by measuring the decrease of absorbance at 340 nm due to the oxidation of NADH in 20 mM HEPES-K^+, 0.05% bovine serum albumin (BSA), 20 μM NADH, and 2 mM pyruvate (Sigma-Aldrich, St. Louis, MO, USA) at a pH of 7.2 using a spectrofluorometer (Spectramax M2, Molecular Devices, San Jose, CA, USA; excitation 340 nm; emission 460 nm), as described previously. Ten nanograms of recombinant LDHA protein were used in the in vitro LDH activity assay. One microgram of total protein from cell or tissue lysates was used for intracellular or in vivo LDH assays.

[2] = biological target: T2, purified recombinant human LDHA (rhLDHA) (Homo sapiens, UniProt P00338); test: NADH binding assay (LDHA binding to Cibacron Blue 3GA agarose); details: machilin A 10 and 100 μM; NADH positive control
T2 construct: made in house
Procedure: An NADH binding assay was performed as described previously. The NADH binding ability of LDHA was determined by measuring the affinity of LDHA to agarose-immobilized Cibacron Blue 3GA, which resembles NADH. Then, 400 ng of purified recombinant human LDHA (rhLDHA) was incubated with NADH or MA, followed by incubation with 30 µL of Cibacron Blue agarose at 4 °C for 2 h. After a washing step with 20 mM Tris-HCl (pH 8.6), LDHA bound to beads was eluted in PBS using a sodium dodecyl sulfate (SDS) gel running buffer and was then subjected to–SDS-polyacrylamide gel electrophoresis (SDS-PAGE) and western blotting. Standardized amounts of protein were used in each reaction.

LDHA [3] = biological target: LDHA (Homo sapiens, UniProt P00338); test: Isothermal titration calorimetry (ITC) of LDHA and NADH; set-up: Full-length LDHA (residues 1–331) was obtained from cDNA by polymerase chain reaction (PCR); inferred from pET-28a vector and Ni-NTA purification; made in house; host or cells: E. coli BL21 (DE3); details: 25 °C, read-out: apparent KD of binding to LDHA
Procedure: compounds. The acquisition time was 1.704 sec, relaxation delay was 1.5 sec and 128 transient were collected. Lactate was quantified using Chenomx NMR Suite 7.1 professional with the Chenomx 600 MHz library database (Chenomx Inc., Edmonton, Alberta, Canada, ).
1.4. Isothermal Titration Calorimetry
Isothermal titration calorimetry (ITC) measurements were carried out using MicroCal auto_iTC200 (GE healthcare, Chicago, IL, USA) at 25 °C. The purified LDHA protein was dialyzed in buffer containing 50 mM Tris-HCl (pH 8.0) and 200 mM NaCl at a concentration of 0.1 mM. NADH was solubilized in the same buffer at concentrations of 1 to 2 mM. The NADH was titrated into the LDHA solution onto an ITC200 microcalorimeter cell. The raw data were integrated and normalized using MicroCal Origin 7.0 software (GE healthcare). The determined binding affinity (KA) and enthalpy changes (ΔH) values were used to calculate ΔS from the standard thermodynamic equation.
For generation of bone marrow-derived macrophage (BMDM), bone marrow cells were extracted from C57BL/6 mice by surgery, and treated with M-CSF (10ng/ml) for 7days. BMDM cells were incubated with the indicated concentration of culture media with MA and lactate or not. The cells were washed with phosphate buffered saline (PBS) and fixed in 3.7% formaldehyde in PBS for 1h. […]

LDHA [4] = tested on: LDHA; set-up: method as in PMID 30850682; details: through reducing its binding to substrate, pyruvate; cited from earlier work

Which “effect on LDHA activity” value [1] does the source give for `c1ccc2c(c1)OCO2` [1,3-benzodioxole, reference compound] here?
The value was “did not affect LDHA activity”.

Which results are given for `NC(=O)C1=CN(C2OC(COP(=O)(O)OP(=O)(O)OCC3OC(n4cnc5c(N)ncnc54)C(O)C3O)C(O)C2O)C=CC1` (centres unmarked) [NADH, 1,4-dihydronicotinamide adenine dinucleotide, reference compound]?
LDHA binding to Cibacron Blue Agarose beads (NADH mimic) [2]: prohibited LDHA binding; Kd (LDHA [3]): 10 µM

Which “effect on LDHA activity” value (LDHA [4]) does the source give for `FC(F)(F)c1ccc([Se]c2ccccc2)cc1` [PSTMB, 1-(phenylseleno)-4-(trifluoromethyl)benzene] here?
Its value is “inhibited LDHA activity”.

For `OCc1ccc2c(c1)OCO2` [piperonyl alcohol, reference compound], which “effect on LDHA activity” value [1] is on record?
Its value is “did not affect LDHA activity”.
